Measured values as given in US20250099596A1, “TETRAHYDRONAPHTHALENE COMPOUND, AND PREPARATION METHOD THEREFOR AND USE THEREOF IN MEDICINE” (Jiangsu Hengrui Pharmaceuticals Co., Ltd., priority 2021, published 2025).
Where two headings read alike, the source gives them in different places.

Assays:
[1] = Pharmacokinetic evaluation, beagle test; type: in vivo; details: beagles; for AUC(0-t): read-out: Area under curve AUC0-t; for half-life: read-out: Half-life T1/2 (converted); for Cmax: read-out: Plasma concentration Cmax
Description: With beagles as test animals, the plasma concentrations of the compound of Example 26-1 and Comparative Example 1 were determined by LC/MS/MS at different time points after intragastric (i.g.)/intravenous (i.v.) administration to beagles. The pharmacokinetic behavior of the compound of the present disclosure in beagles was studied and its pharmacokinetic profile was evaluated.
The compound of Example 26-1 and Comparative Example 1 (see patent WO2018102725A1, Example 411), whose structure is shown below:
Sixteen beagles, of which half were male and half female, were evenly divided into 4 groups. The beagles were provided by Shanghai Medicilon Inc. The 4 groups were fasted overnight and then dosed intragastrically and intravenously.
Certain amounts of the compound of Example 26-1 and the compound of Comparative Example 1 were weighed out and mixed with 5% (v/v) DMSO+30% (v/v) PG+30% (v/v) PEG400+35% (v/v) normal saline to make 0.4 mg/mL clear solutions (for the intragastric administration groups) and 0.25 mg/mL clear solutions (for the intravenous administration groups).
The intragastric administration groups: the dose was 2.0 mg/kg, and the volume was 5.0 mL/kg.
The intravenous administration groups: the dose was 0.5 mg/kg, and the volume was 2.0 mL/kg.
The intragastric administration group: Blood (1.0 mL) was collected from the jugular vein or the forelimb vein into EDTA-K2 anticoagulation tubes before administration and 0.25 h, 0.5 h, 1.0 h, 2.0 h, 4.0 h, 6.0 h, 8.0 h, 12.0 h and 24.0 h after administration and centrifuged at 10,000 rpm for 5 min (4° C.). The plasma was separated within 1 h and stored at −80° C. before analysis. The process from blood collection to centrifugation was performed in an ice bath. Three hours after administration, feeding was resumed.
The intravenous administration groups: Blood was collected before administration and 5 min, 0.25 h, 0.5 h, 1.0 h, 2.0 h, 4.0 h, 8.0 h, 12.0 h and 24 h after administration and processed as in the intragastric administration groups.
The plasma concentrations of the test compounds were determined after administration of different concentrations of the test compounds to beagles: plasma samples (50 μL) were collected from beagles at various time points after administration, and proteins were precipitated with 500 μL of methanol (containing 100 ng/mL internal standard Verapamil) for each of the samples; the mixtures were vortexed for 1 min and centrifuged at 18,000 g for 7 min. 500 μL of supernatant was transferred to a 96-well plate. 1 μL of supernatant was collected for LC/MS/MS analysis.

MCF7 cells = assay: Inhibitory effects on MCF7 cell proliferation (CellTiter-Glo); type: cell-based; details: Homo sapiens, 144 h, 6 days incubation, read-out: IC50 (nM), inhibition of MCF7 cell proliferation
Procedure, shortened: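 MCF7 cells seeded at 3,000 cells/well in MEM with 2% FBS, then treated next day with 9 final concentrations (4-fold dilutions from 1000 nM) for 6 days at 37° C; blank control 0.5% DMSO. Viability read by CellTiter-Glo luminescence; IC50 fitted from concentration–signal data.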

MCF7/ERα Y537S cells = assay: Inhibitory activity on proliferation of ERα mutant-expressing MCF7 cells; type: cell-based; details: Homo sapiens, 144 h, 6 days incubation, CellTiter-Glo, read-out: IC50 (nM), inhibition of proliferation of ERα mutant-expressing MCF7 cells
Procedure, shortened: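 MCF7 cells stably expressing ERα Y537S (lentiviral) were seeded in 2% FBS medium and exposed for 6 days at 37 °C to 9 concentrations (4-fold dilution from 1000 nM, 0.5% DMSO control). Viability read by CellTiter-Glo luminescence; IC50 calculated from concentration–signal data.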

[2] = both sexes, beagle, dog, plasma, iv, i.v., 0.5 mg/kg
[3] = both sexes, beagle, dog, plasma, po, i.g., 2.0 mg/kg

SMILES	IC50 (MCF7 cells)	IC50 (MCF7/ERα Y537S cells)	other results
O=C1CCC(N2Cc3cc(N4CCN(CC5CCN(c6ccc([C@@H]7c8ccc(O)cc8CC[C@@H]7c7ccccc7)cc6)CC5)CC4)ccc3C2=O)C(=O)N1 (stereo partly shown) [Comparative Example 1, reference compound]			Clearance CL/F ([1]; i.v., 0.5 mg/kg): 2.8 mL/min/kg; AUC(0-t) [1, 2]: 2680 ng·h/mL; half-life [1, 2]: 8.1 h; Cmax [1, 2]: 600 ng/mL; Vd/F ([1]; both sexes, beagle, dog, plasma, po, i.g., 2.0 mg/kg, read-out: Apparent distribution volume Vz/F): 5.5 L/kg; AUC(0-t) [1, 3]: 4050 ng·h/mL; CL/F ([1]; both sexes, beagle, dog, plasma, po, i.g., 2.0 mg/kg, read-out: Clearance CL/F): 7.3 mL/min/kg; half-life [1, 3]: 9 h; Cmax [1, 3]: 324 ng/mL
CC(C)C[C@H]1CCc2cc(O)ccc2[C@H]1c1ccc(N2CCC(CN3CCN(c4ccc5c(c4)CN([C@@H]4CCC(=O)NC4=O)C5=O)CC3)CC2)cc1 [Example 42, (R)-3-(5-(4-((1-(4-((1R,2R)-6-Hydroxy-2-isobutyl-1,2,3,4-tetrahydronaphthalen-1-yl)phenyl)piperidin-4-yl)methyl)piperazin-1-yl)-1-oxoisoindolin-2-yl)piperidine-2,6-dione]	0.88 nM	3.09 nM	
O=C1CCC(N2Cc3cc(N4CCN(CC5CCN(c6ccc(C7c8ccc(O)cc8CC[C@@H]7C7CCOCC7)cc6)CC5)CC4)ccc3C2=O)C(=O)N1 (stereo partly drawn) [Example 7, 3-(5-(4-((1-(4-((1,2)-cis-6-Hydroxy-2-(tetrahydro-2H-pyran-4-yl)-1,2,3,4-tetrahydronaphthalen-1-yl)phenyl)piperidin-4-yl)methyl)piperazin-1-yl)-1-oxoisoindolin-2-yl)piperidine-2,6-dione]	0.67 nM	3.31 nM	
O=C1CC[C@H](N2Cc3cc(N4CCN(CC5CCN(c6ccc([C@@H]7c8ccc(O)cc8CC[C@@H]7C7CC7)cc6F)CC5)CC4)ccc3C2=O)C(=O)N1 [Example 21, (S)-3-(5-(4-((1-(4-((1R,2R)-2-Cyclopropyl-6-hydroxy-1,2,3,4-tetrahydronaphthalen-1-yl)-2-fluorophenyl)piperidin-4-yl)methyl)piperazin-1-yl)-1-oxoisoindolin-2-yl)piperidine-2,6-dione]	1.72 nM	5.66 nM	

Further lines, with some results ahead:

IC50 (MCF7 cells)	IC50 (MCF7/ERα Y537S cells)	SMILES	other results
2.46 nM	12.9 nM	CC1(C)CCc2cc(O)ccc2[C@H]1c1ccc(N2CCC(CN3CCN(c4ccc5c(c4)CN(C4CCC(=O)NC4=O)C5=O)CC3)CC2)cc1 (mixture of isomers) [Example 25-1, 3-(5-(4-((1-(4-((R)-6-Hydroxy-2,2-dimethyl-1,2,3,4-tetrahydronaphthalen-1-yl)phenyl)piperidin-4-yl)methyl)piperazin-1-yl)-1-oxoisoindolin-2-yl)piperidine-2,6-dione]	
13.4 nM	44.6 nM	C[C@H]1CCc2cc(O)ccc2[C@H]1c1ccc(N2CCC(CN3CCN(c4ccc5c(c4)CN([C@H]4CCC(=O)NC4=O)C5=O)CC3)CC2)cc1 [Example 27, (S)-3-(5-(4-((1-(4-((1R,2S)-6-Hydroxy-2-methyl-1,2,3,4-tetrahydronaphthalen-1-yl)phenyl)piperidin-4-yl)methyl)piperazin-1-yl)-1-oxoisoindolin-2-yl)piperidine-2,6-dione]	
